# Tests used:
# [1] = tested on: IL-2 secretion by human effector memory T cells (TEM); test: Effector memory T cells IL-2 release assay; assay type: cell-based; conditions: T-cell; human CD4+ effector memory T cells, CD3/CD28 bead stimulation, 24 h; read-out: CD4TC IL2 IC50
# Summary of the method: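 Human CD4+ effector memory T cells from healthy-donor buffy coats were stimulated with anti-CD3/CD28 Dynabeads and exposed to 10 semi-log compound doses (0.1% DMSO) for 24 h at 37 °C. Supernatant IL-2 was measured by HTRF, and IC50 came from a 4-parameter logistic fit to maximal IL-2. Viability was checked by flow cytometry.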
# [2] = target: Recombinant human MALT-1 (amino acids 340-824) (Homo sapiens (Human), UniProt Q9UDY8); test: MALT-1 inhibition assay (fluorogenic substrate Ac-LRSR-Rh110-DP); assay type: biochemical; conditions: recombinant human MALT-1, substrate Ac-LRSR-Rh110-DP
# Summary of the method: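 MALT-1 at 3 nM final was reacted with 10 μM Ac-LRSR-Rh110-DP, with substrate addition starting the reaction. Incubation ran 60 minutes at 25° C in the dark. Percent inhibition from fluorescence across doses was fitted to a 4-parameter logistic to give IC50.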
# Chain of Recombinant human MALT-1 (amino acids 340-824) (Q9UDY8 340-824): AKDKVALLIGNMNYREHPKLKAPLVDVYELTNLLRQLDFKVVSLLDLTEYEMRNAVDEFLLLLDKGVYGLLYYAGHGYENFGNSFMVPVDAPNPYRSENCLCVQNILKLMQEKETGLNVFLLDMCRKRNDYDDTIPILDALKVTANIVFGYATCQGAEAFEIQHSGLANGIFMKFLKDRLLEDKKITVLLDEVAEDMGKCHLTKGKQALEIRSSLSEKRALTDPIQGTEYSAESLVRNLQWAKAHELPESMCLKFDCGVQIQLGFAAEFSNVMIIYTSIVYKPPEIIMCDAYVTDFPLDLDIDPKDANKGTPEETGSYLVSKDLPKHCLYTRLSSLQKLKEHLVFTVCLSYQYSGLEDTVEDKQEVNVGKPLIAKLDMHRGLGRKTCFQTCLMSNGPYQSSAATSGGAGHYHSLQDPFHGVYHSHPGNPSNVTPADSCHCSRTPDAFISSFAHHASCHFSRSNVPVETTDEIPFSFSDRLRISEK
SMILES,IC50 [1] [µM],IC50 [2] [µM]
CN(C(=O)CC1CCS(=O)(=O)CC1)[C@@H](c1ccc(N2CCCc3c2cnc2cc(Cl)nn32)cc1)C(F)(F)F [CPD0073088],0.142,0.091
"CC(=O)N1CCC(C(=O)N(C)[C@@H](c2ccc(N3CCCc4c3cnc3cc(Cl)nn43)cc2)C(F)(F)F)CC1 [CPD0073089, 1-acetyl-N-[(1S)-1-(4-{4-chloro-2,3,7,10-tetraazatricyclo[7.4.0.0^2,6]trideca-1(9),3,5,7-tetraen-10-yl}phenyl)-2,2,2-trifluoroethyl]-N-methylpiperidine-4-carboxamide]",0.079,0.046
"CN(C(=O)C1CCN(C(=O)CO)CC1)[C@@H](c1ccc(N2CCCc3c2cnc2cc(Cl)nn32)cc1)C(F)(F)F [CPD0073091, N-[(1S)-1-(4-{4-chloro-2,3,7,10-tetraazatricyclo[7.4.0.0^2,6]trideca-1(9),3,5,7-tetraen-10-yl}phenyl)-2,2,2-trifluoroethyl]-1-(2-hydroxyacetyl)-N-methylpiperidine-4-carboxamide]",0.101,0.059
"CN(C(=O)[C@H]1C[C@@H]([S@+](C)(=N)[O-])C1)[C@@H](c1ccc(N2CCCc3c2cnc2cc(Cl)nn32)cc1)C(F)(F)F [CPD0073224, (1S,3s)-N-[(1S)-1-(4-{4-chloro-2,3,7,10-tetraazatricyclo[7.4.0.0^2,6]trideca-1(9),3,5,7-tetraen-10-yl}phenyl)-2,2,2-trifluoroethyl]-3-[(S)-imino(methyl)oxo-λ^6-sulfanyl]-N-methylcyclobutane-1-carboxamide]",0.181,0.056
"CN(C(=O)[C@H]1C[C@H]([S@@+](C)(=N)[O-])C1)[C@@H](c1ccc(N2CCCc3c2cnc2cc(Cl)nn32)cc1)C(F)(F)F [CPD0073225, (1S,3r)-N-[(1S)-1-(4-{4-chloro-2,3,7,10-tetraazatricyclo[7.4.0.0^2,6]trideca-1(9),3,5,7-tetraen-10-yl}phenyl)-2,2,2-trifluoroethyl]-3-[(S)-imino(methyl)oxo-λ^6-sulfanyl]-N-methylcyclobutane-1-carboxamide]",0.122,0.053
"CN(C(=O)[C@H]1C[C@H]([S@+](C)(=N)[O-])C1)[C@@H](c1ccc(N2CCCc3c2cnc2cc(Cl)nn32)cc1)C(F)(F)F [CPD0073226, (1R,3s)-N-[(1S)-1-(4-{4-chloro-2,3,7,10-tetraazatricyclo[7.4.0.0^2,6]trideca-1(9),3,5,7-tetraen-10-yl}phenyl)-2,2,2-trifluoroethyl]-3-[(S)-imino(methyl)oxo-λ^6-sulfanyl]-N-methylcyclobutane-1-carboxamide]",0.105,0.06
"CN(C(=O)CN1C(=O)COC1=O)[C@@H](c1ccc(N2CCCc3c2cnc2cc(Cl)nn32)cc1)C(F)(F)F [CPD0073237, N-[(1S)-1-(4-{4-chloro-2,3,7,10-tetraazatricyclo[7.4.0.0^2,6]trideca-1(9),3,5,7-tetraen-10-yl}phenyl)-2,2,2-trifluoroethyl]-2-(2,4-dioxo-1,3-oxazolidin-3-yl)-N-methylacetamide]",0.513,0.174
"CN(C(=O)C1CN(S(C)(=O)=O)C1)[C@@H](c1ccc(N2CCCc3c2cnc2cc(Cl)nn32)cc1)C(F)(F)F [CPD0073238, N-[(1S)-1-(4-{4-chloro-2,3,7,10-tetraazatricyclo[7.4.0.0^2,6]trideca-1(9),3,5,7-tetraen-10-yl}phenyl)-2,2,2-trifluoroethyl]-1-methanesulfonyl-N-methylazetidine-3-carboxamide]",0.174,0.087
"CN(C(=O)CN1CCOCC1)[C@@H](c1ccc(N2CCCc3c2cnc2cc(Cl)nn32)cc1)C(F)(F)F [CPD0073243, N-[(1S)-1-(4-{4-chloro-2,3,7,10-tetraazatricyclo[7.4.0.0^2,6]trideca-1(9),3,5,7-tetraen-10-yl}phenyl)-2,2,2-trifluoroethyl]-N-methyl-2-(morpholin-4-yl)acetamide]",0.315,0.273
